Source: paper PMC10728186, “Acid phosphatase-like proteins, a biogenic amine and leukotriene-binding salivary protein family from the flea Xenopsylla cheopis” (Communications Biology, 2023)
Like-named read-outs stand apart in the source and are kept apart here.

Experiments:
Format in all cases: binding
XcAP-2 = target: T1, XcAP-2 (Xenopsylla cheopis, UniProt A2IA93); assay: isothermal titration calorimetry
T1 construct: mature ORF (no signal peptide) in pcDNA3.1(+), secreted from HEK293 / Expi293; natural Gly and Pro in place of the two catalytic His; Thr10, Ile228, His265 (mature count)
T1 sequence (A2IA93 20-378): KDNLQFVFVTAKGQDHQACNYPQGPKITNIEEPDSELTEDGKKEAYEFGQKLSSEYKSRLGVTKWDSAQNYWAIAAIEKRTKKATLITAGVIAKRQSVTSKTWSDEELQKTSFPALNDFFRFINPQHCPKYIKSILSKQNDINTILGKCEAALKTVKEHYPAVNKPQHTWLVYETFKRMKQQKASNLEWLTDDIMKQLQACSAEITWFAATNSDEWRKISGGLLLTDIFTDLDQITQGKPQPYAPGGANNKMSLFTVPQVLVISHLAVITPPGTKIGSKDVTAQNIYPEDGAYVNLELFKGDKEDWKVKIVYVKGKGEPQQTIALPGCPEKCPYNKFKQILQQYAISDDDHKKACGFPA
Source text: isothermal titration calorimetry on XcAP-2

XcAP-3 = target: T2, XcAP-3 (Xenopsylla cheopis, UniProt A2IA90); assay: isothermal titration calorimetry
T2 construct: mature ORF (no signal peptide) in pcDNA3.1(+), secreted from HEK293 / Expi293; natural Gly and Pro in place of the two catalytic His; Thr10, Ile229, Lys266 (mature count)
T2 sequence (A2IA90 20-380): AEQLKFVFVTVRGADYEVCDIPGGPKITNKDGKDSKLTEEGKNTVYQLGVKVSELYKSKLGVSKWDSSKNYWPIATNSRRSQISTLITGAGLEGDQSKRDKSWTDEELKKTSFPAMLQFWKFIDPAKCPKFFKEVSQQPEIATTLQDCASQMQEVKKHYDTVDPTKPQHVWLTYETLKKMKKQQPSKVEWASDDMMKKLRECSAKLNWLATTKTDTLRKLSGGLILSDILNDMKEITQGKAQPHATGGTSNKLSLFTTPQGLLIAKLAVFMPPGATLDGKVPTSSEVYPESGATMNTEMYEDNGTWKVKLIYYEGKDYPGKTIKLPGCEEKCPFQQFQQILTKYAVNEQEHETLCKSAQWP
Source text: isothermal titration calorimetry on XcAP-3

XcAP-1 [1] = target: T3, XcAP-1 (Xenopsylla cheopis, UniProt A2IA89); assay: isothermal titration calorimetry
T3 construct: mature ORF (no signal peptide) in VR1020 vector, secreted from HEK293 / Expi293; monomer; residues Asp7-Asn361 (mature count) seen in crystal; natural Gly and Ser in place of the two catalytic His
T3 sequence (A2IA89 17-374): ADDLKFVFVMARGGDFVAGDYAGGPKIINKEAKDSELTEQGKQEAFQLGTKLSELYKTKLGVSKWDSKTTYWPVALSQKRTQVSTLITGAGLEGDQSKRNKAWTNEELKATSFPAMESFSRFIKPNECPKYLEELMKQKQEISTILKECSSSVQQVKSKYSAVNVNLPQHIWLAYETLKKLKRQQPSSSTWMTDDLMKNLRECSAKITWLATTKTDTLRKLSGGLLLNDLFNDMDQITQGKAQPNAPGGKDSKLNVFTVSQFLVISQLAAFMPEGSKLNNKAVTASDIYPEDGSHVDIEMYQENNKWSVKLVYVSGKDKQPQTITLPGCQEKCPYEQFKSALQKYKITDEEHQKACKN
Source text: isothermal titration calorimetry on XcAP-1

XcAP-1 [2] = target: T3, XcAP-1; assay: crystal structure […] A; conditions: co-purified from HEK293 culture, modelled from density; pocket near substituted catalytic residues; second site beside serotonin
XcAP-1 [3] = target: T3, XcAP-1; assay: isothermal titration calorimetry; crystal structure […] A

Kd (XcAP-2; read-out: XcAP-2) [nM]	SMILES	Kd (XcAP-1 [1]; read-out: XcAP-1) [nM]	other results
111	CCCCC/C=C\C[C@@H](O)/C=C/C=C/C=C\[C@@H](O)CCCC(=O)O [LTB4]		
60.2	CCCCC/C=C\C\C=C/C=C/C=C/[C@@H](SC[C@H](N)C(=O)O)[C@@H](O)CCCC(=O)O [LTE4]		
153	CCCCC/C=C\C\C=C/C=C/C=C/[C@@H](SC[C@H](N)C(=O)NCC(=O)O)[C@@H](O)CCCC(=O)O [LTD4]		
78.7	CCCCC/C=C\C\C=C/C=C/C=C/[C@@H](SC[C@H](NC(=O)CC[C@H](N)C(=O)O)C(=O)NCC(=O)O)[C@@H](O)CCCC(=O)O [LTC4]	37.4	Kd (XcAP-3; read-out: XcAP-3): 65.8 nM
	NC[C@H](O)c1ccc(O)c(O)c1 [Norepinephrine]	76.9	
	CNC[C@H](O)c1ccc(O)c(O)c1 [Epinephrine]	17.7	
	CCCCCC/C=C\CCCCCCCC(=O)O [palmitoleic acid]		crystal structure 1.75 A (XcAP-1 [2]): near the putative catalytic site of XcAP-1 was also observed, in which we modeled a palmitoleic acid
	NCCc1c[nH]c2ccc(O)cc12 [Serotonin]		Kd (XcAP-1 [3]): 3.72 nM; Kd (XcAP-1 [1]; read-out: K (M^-1) (converted)): 5.92 nM

SMILES	Kd (XcAP-2; read-out: XcAP-2) [nM]	Kd (XcAP-1 [1]; read-out: XcAP-1) [nM]	other results
NCCc1c[nH]cn1 [Histamine]	37.7		Kd (XcAP-3; read-out: K (M^-1) (converted)): 29.2 nM; Kd (XcAP-3; read-out: XcAP-3): 37 nM; Kd (XcAP-2; read-out: K (M^-1) (converted)): 43.9 nM
